According to the supplement of paper PMC10307832:

Tests used:
Assay in all cases: relative viability (nuclei count vs DMSO), 5 days (fraction); higher = more cells survive
ABC-1 = tested on: ABC-1
Summary of the method: (§1)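 The day after seeding in 1536-well plates, lung cancer cell lines were treated by pin tool with a single drug, or with a fixed anchor-drug dose together with five library-drug doses (not always all listed) in √10 steps. After 5 days, a combined fix-and-stain solution (final 0.05% Triton X-100, 1% formaldehyde, 1 ug/ml Hoechst) was added. Nuclei counted on 4× images gave relative viability as treated counts over vehicle counts, reported as the median of duplicate plates.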

COR-L23 = tested on: COR-L23
Summary of the method: as §1

ChaGo-K-1 = tested on: ChaGo-K-1
Summary of the method: as §1

EMC-BAC-2 = tested on: EMC-BAC-2
Summary of the method: as §1

HARA = tested on: HARA
Summary of the method: as §1

HCC-15 = tested on: HCC-15
Summary of the method: as §1

HCC-366 = tested on: HCC-366
Summary of the method: as §1

HCC-78 = tested on: HCC-78
Summary of the method: as §1

HOP-62 = tested on: HOP-62
Summary of the method: as §1

LC-2-ad = tested on: LC-2-ad
Summary of the method: as §1

NCI-H1395 = tested on: NCI-H1395
Summary of the method: as §1

NCI-H1793 = tested on: NCI-H1793
Summary of the method: as §1

NCI-H1944 = tested on: NCI-H1944
Summary of the method: as §1

NCI-H1993 = tested on: NCI-H1993
Summary of the method: as §1

NCI-H2023 = tested on: NCI-H2023
Summary of the method: as §1

NCI-H2126 = tested on: NCI-H2126
Summary of the method: as §1

NCI-H2228 = tested on: NCI-H2228
Summary of the method: as §1

NCI-H23 = tested on: NCI-H23
Summary of the method: as §1

NCI-H2405 = tested on: NCI-H2405
Summary of the method: as §1

NCI-H358 = tested on: NCI-H358
Summary of the method: as §1

NCI-H838 = tested on: NCI-H838
Summary of the method: as §1

SK-LU-1 = tested on: SK-LU-1
Summary of the method: as §1

## Nc1ccn([C@@H]2O[C@H](CO)[C@@H](O)[C@@H]2O)c(=O)n1 [Cytarabine] + O=C(CCCCCCC(=O)Nc1ccccc1)NO [Vorinostat] (partner 1 µM)
ABC-1; first compound 0.005 µM
  relative viability: 0.934
ABC-1; first compound 0.01581 µM
  relative viability: 0.995
ABC-1; first compound 0.05 µM
  relative viability: 0.972
ABC-1; first compound 0.1581 µM
  relative viability: 0.933
ABC-1; first compound 0.5 µM
  relative viability: 0.744
COR-L23; first compound 0.005 µM
  relative viability: 0.376
COR-L23; first compound 0.01581 µM
  relative viability: 0.404
COR-L23; first compound 0.05 µM
  relative viability: 0.304
COR-L23; first compound 0.1581 µM
  relative viability: 0.136
ChaGo-K-1; first compound 0.005 µM
  relative viability: 0.673
ChaGo-K-1; first compound 0.01581 µM
  relative viability: 0.649
ChaGo-K-1; first compound 0.05 µM
  relative viability: 0.471
ChaGo-K-1; first compound 0.1581 µM
  relative viability: 0.408
ChaGo-K-1; first compound 0.5 µM
  relative viability: 0.288
EMC-BAC-2; first compound 0.005 µM
  relative viability: 0.494
EMC-BAC-2; first compound 0.01581 µM
  relative viability: 0.448
EMC-BAC-2; first compound 0.05 µM
  relative viability: 0.165
EMC-BAC-2; first compound 0.1581 µM
  relative viability: 0.29
EMC-BAC-2; first compound 0.5 µM
  relative viability: 0.182
HARA; first compound 0.005 µM
  relative viability: 0.694
HARA; first compound 0.01581 µM
  relative viability: 0.44
HARA; first compound 0.05 µM
  relative viability: 0.52
HARA; first compound 0.1581 µM
  relative viability: 0.458
HARA; first compound 0.5 µM
  relative viability: 0.347
HCC-15; first compound 0.005 µM
  relative viability: 0.856
HCC-15; first compound 0.01581 µM
  relative viability: 0.784
HCC-15; first compound 0.05 µM
  relative viability: 0.775
HCC-15; first compound 0.1581 µM
  relative viability: 0.676
HCC-15; first compound 0.5 µM
  relative viability: 0.647
HCC-366; first compound 0.005 µM
  relative viability: 0.31
HCC-366; first compound 0.01581 µM
  relative viability: 0.347
HCC-366; first compound 0.05 µM
  relative viability: 0.301
HCC-366; first compound 0.1581 µM
  relative viability: 0.087
HCC-366; first compound 0.5 µM
  relative viability: 0.0576
HCC-78; first compound 0.005 µM
  relative viability: 0.498
HCC-78; first compound 0.01581 µM
  relative viability: 0.471
HCC-78; first compound 0.05 µM
  relative viability: 0.402
HCC-78; first compound 0.1581 µM
  relative viability: 0.348
HCC-78; first compound 0.5 µM
  relative viability: 0.263
HOP-62; first compound 0.005 µM
  relative viability: 0.633
HOP-62; first compound 0.01581 µM
  relative viability: 0.406
HOP-62; first compound 0.05 µM
  relative viability: 0.437
HOP-62; first compound 0.1581 µM
  relative viability: 0.115
HOP-62; first compound 0.5 µM
  relative viability: 0.0936
LC-2-ad; first compound 0.005 µM
  relative viability: 0.766
LC-2-ad; first compound 0.01581 µM
  relative viability: 0.691
LC-2-ad; first compound 0.05 µM
  relative viability: 0.67
LC-2-ad; first compound 0.1581 µM
  relative viability: 0.646
LC-2-ad; first compound 0.5 µM
  relative viability: 0.436
NCI-H1395; first compound 0.005 µM
  relative viability: 0.692
NCI-H1395; first compound 0.01581 µM
  relative viability: 0.586
NCI-H1395; first compound 0.05 µM
  relative viability: 0.5
NCI-H1395; first compound 0.1581 µM
  relative viability: 0.357
NCI-H1395; first compound 0.5 µM
  relative viability: 0.349
NCI-H1793; first compound 0.005 µM
  relative viability: 0.631
NCI-H1793; first compound 0.01581 µM
  relative viability: 0.607
NCI-H1793; first compound 0.05 µM
  relative viability: 0.643
NCI-H1793; first compound 0.1581 µM
  relative viability: 0.352
NCI-H1793; first compound 0.5 µM
  relative viability: 0.186
NCI-H1944; first compound 0.005 µM
  relative viability: 0.508
NCI-H1944; first compound 0.01581 µM
  relative viability: 0.326
NCI-H1944; first compound 0.05 µM
  relative viability: 0.309
NCI-H1944; first compound 0.1581 µM
  relative viability: 0.203
NCI-H1944; first compound 0.5 µM
  relative viability: 0.159
NCI-H1993; first compound 0.005 µM
  relative viability: 0.865
NCI-H1993; first compound 0.01581 µM
  relative viability: 0.556
NCI-H1993; first compound 0.05 µM
  relative viability: 0.751
NCI-H1993; first compound 0.1581 µM
  relative viability: 0.503
NCI-H1993; first compound 0.5 µM
  relative viability: 0.602
NCI-H2023; first compound 0.005 µM
  relative viability: 0.434
NCI-H2023; first compound 0.01581 µM
  relative viability: 0.225
NCI-H2023; first compound 0.05 µM
  relative viability: 0.22
NCI-H2023; first compound 0.1581 µM
  relative viability: 0.101
NCI-H2023; first compound 0.5 µM
  relative viability: 0.0846
NCI-H2126; first compound 0.005 µM
  relative viability: 0.649
NCI-H2126; first compound 0.01581 µM
  relative viability: 0.681
NCI-H2126; first compound 0.05 µM
  relative viability: 0.448
NCI-H2126; first compound 0.1581 µM
  relative viability: 0.593
NCI-H2126; first compound 0.5 µM
  relative viability: 0.44
NCI-H2228; first compound 0.005 µM
  relative viability: 0.472
NCI-H2228; first compound 0.01581 µM
  relative viability: 0.275
NCI-H2228; first compound 0.05 µM
  relative viability: 0.197
NCI-H2228; first compound 0.1581 µM
  relative viability: 0.106
NCI-H2228; first compound 0.5 µM
  relative viability: 0.0947
NCI-H23; first compound 0.005 µM
  relative viability: 0.65
NCI-H23; first compound 0.01581 µM
  relative viability: 0.511
NCI-H23; first compound 0.05 µM
  relative viability: 0.306
NCI-H23; first compound 0.1581 µM
  relative viability: 0.156
NCI-H23; first compound 0.5 µM
  relative viability: 0.122
NCI-H2405; first compound 0.005 µM
  relative viability: 1.02
NCI-H2405; first compound 0.01581 µM
  relative viability: 0.748
NCI-H2405; first compound 0.05 µM
  relative viability: 0.624
NCI-H2405; first compound 0.1581 µM
  relative viability: 0.43
NCI-H2405; first compound 0.5 µM
  relative viability: 0.374
NCI-H358; first compound 0.005 µM
  relative viability: 0.632
NCI-H358; first compound 0.01581 µM
  relative viability: 0.557
NCI-H358; first compound 0.05 µM
  relative viability: 0.538
NCI-H358; first compound 0.1581 µM
  relative viability: 0.178
NCI-H358; first compound 0.5 µM
  relative viability: 0.113
NCI-H838; first compound 0.005 µM
  relative viability: 0.715
NCI-H838; first compound 0.01581 µM
  relative viability: 0.651
NCI-H838; first compound 0.05 µM
  relative viability: 0.654
NCI-H838; first compound 0.1581 µM
  relative viability: 0.515
NCI-H838; first compound 0.5 µM
  relative viability: 0.318
SK-LU-1; first compound 0.005 µM
  relative viability: 0.509
SK-LU-1; first compound 0.01581 µM
  relative viability: 0.665
SK-LU-1; first compound 0.05 µM
  relative viability: 0.632
SK-LU-1; first compound 0.1581 µM
  relative viability: 0.479
SK-LU-1; first compound 0.5 µM
  relative viability: 0.422
